Results as given in patent EP0799174B1, “BIOCIDAL ALCOHOLS, THEIR PRODUCTION AND THEIR USE” (SCHÜLKE & MAYR GMBH, priority 1994, dated 1996).

Tests used:
[1] = system: Penicillium funiculosum ATCC 36839; assay: MIC values, water-soluble (inhibition titre, dilution series in CSL); type: cell-based
[2] = system: Microsporon luteus ATCC 15442; assay: Skin antiseptic a): test on skin of subjects, contamination after 1 h, ring method; type: in vivo; details: aromatic alcohol 1.0% in 1-propanol 30.0%, 2-propanol 45.0%, 0.2 ml on 10cm^2 skin, germs removed after 15 minutes, average of all 10 subjects
Description: • 1-propanol 30.0% • 2-propanol 45.0% • aromatic alcohol 1.0% • dem. water to 100 Test germ: Microsporon luteus ATCC 15442 Test method: Apply 0.2 ml preparation to 10cm^2 skin, allow to dry, cover with TEGADERM® film and leave to work for 1 h, contaminate with 0.1 ml germ suspension, remove after 15 minutes with ring method Reference: Control against Neo-Kodan® Number of subjects: 10 subjects

[3] = system: Trichophyton mentagrophytes (ATCC 9533); assay: Foot spray: minimum inhibition concentration; type: cell-based; details: foot spray formula: 2-propanol 40.0%, aromatic alcohol 0.2 %, allantoin 0.5 %, dem. water to 100
From the text: (§1) Formula: • 2-propanol 40.0% • aromatic alcohol 0.2 % • allantoin 0.5 % • dem. water to 100 Test germs: special skin fungi such as Trichophyton rubrum, Trichophyton mentagrophytes (ATCC 9533), Microsporon gypseum Test method: Determination of the minimum inhibition concentration (method see under 1.) Data in %

Trichophyton rubrum [4] = assay: Foot spray: minimum inhibition concentration; type: cell-based; details: foot spray formula: 2-propanol 40.0%, aromatic alcohol 0.2 %, allantoin 0.5 %, dem. water to 100
From the text: as §1

Microsporon gypseum [5] = assay: Foot spray: minimum inhibition concentration; type: cell-based; details: foot spray formula: 2-propanol 40.0%, aromatic alcohol 0.2 %, allantoin 0.5 %, dem. water to 100
From the text: as §1

[6] = system: Candida albicans ATCC 10231; assay: MIC values, water-soluble (inhibition titre, dilution series in CSL); type: cell-based
Description: (§2) Standard formulation: • Rewopal MPG 40 25.0 g • aromatic alcohol 10 mmol • dem.* water to 100 g • lactic acid for adjusting the pH value to 7.0 q.s.
(§3) In sterile test tubes, 5 ml each of the dilutions of the disinfectant in WSH (water of standardized hardness) are mixed with 5 ml double-concentrated casein peptone soybean flour peptone solution (CSL) or CSL and deactivating substances.
(§4) To determine the bacteriostatic action on Staphylococcus aureus and Proteus mirabilis the tubes are inoculated by adding 0.1 ml of a CSL culture diluted 1:10 with CSL and incubated for 24 h at 37°C.
(§5) To test the fungistatic action, 0.1 ml of an undiluted CSL culture of Candida albicans which has been incubated at 37°C for 72 h is used in each case. Evaluation takes place after 72 h at 37°C.
(§6) The highest dilution of the preparation in CSL or CSL and deactivating substances that still suppresses growth of the test germs after […] incubation serves as the measure of the multiplication-inhibiting action (inhibition titre).
(§7) In the case of the disinhibition tests, the culture media are to be adjusted to a pH value of 7.0 ± 0.2 according to the state of the disinfectant.
(§8) Standard formulation: • aromatic alcohol 5.0 % • Brij 58 5.0 % • 1,3-butanediol to 100 • Test germs: see above • Test method: see above

[7] = system: Staphylococcus aureus ATCC 6538; assay: as above; type: cell-based
Description: as §2, §3, §4, §5, §6, §7, §8

[8] = system: Aspergillus niger ATCC 6275; assay: as above; type: cell-based
[9] = system: Trichophyton mentagrophytes; assay: Foot spray: agar diffusion test; type: cell-based; details: foot spray formula with aromatic alcohol 0.2 %
From the text: as §1, with “in % Test germs: special skin fungi such as Trichophyton rubrum, Trichophyton mentagrophytes, Microsporon gypseum Test method: Agar diffusion test Data as millimetres inhibition zone” for “in %”

Trichophyton rubrum [10] = assay: Foot spray: agar diffusion test; type: cell-based; details: foot spray formula with aromatic alcohol 0.2 %
From the text: as §1, with “in % Test germs: special skin fungi such as Trichophyton rubrum, Trichophyton mentagrophytes, Microsporon gypseum Test method: Agar diffusion test Data as millimetres inhibition zone” for “in %”

Microsporon gypseum [11] = assay: Foot spray: agar diffusion test; type: cell-based; details: foot spray formula with aromatic alcohol 0.2 %
From the text: as §1, with “in % Test germs: special skin fungi such as Trichophyton rubrum, Trichophyton mentagrophytes, Microsporon gypseum Test method: Agar diffusion test Data as millimetres inhibition zone” for “in %”

[12] = system: Proteus vulgaris NCTC 4635; assay: MIC values, water-soluble (inhibition titre, dilution series in CSL); type: cell-based
[13] = system: Mycobacterium terrae ATCC 15755; assay: Germ carrier experiment with standard cotton; type: cell-based; parameters: key: E: individual colonies; M: several colonies; +: weak growth; ++: moderate growth; +++: heavy growth; ++++: very heavy growth; ∞: lawn growth; details: Rewopal MPG 40 25.0%, aromatic alcohol 2.0 %, dem. water to 100
Description: • Rewopal MPG 40 25.0% • aromatic alcohol 2.0 % • dem. water to 100
The bacteria are elutriated with 5 ml CSL from a 24 h-old (37°C) culture onto CSA plates measuring approx. 9 cm in diameter, the suspension being diluted with CSL if necessary. The number of CFU/ml is to be determined using surface culture. It should be > 10^9/ml.
The sterilized and dried germ carriers are introduced into the bacterial suspension and left in it for 15 minutes, during which they are turned over twice.
A number (4) of contaminated, thoroughly impregnated germ carriers, corresponding to the proposed removal times - 15, 30, 60 and 120 minutes - is placed in a small dish and 10 ml of the disinfectant solution to be tested in WSH are poured over them. Air bubbles are to be removed by repeated turning of the germ carriers.
After the corresponding action times, the germ carriers are to be removed from the disinfectant solution, and after rinsing twice in each case for 1 min in 10 ml ML solution (see Appendix) to which the deactivating substances were optionally added, the germ carriers are placed onto the surface of a Löwenstein-Jensen nutrient medium with tweezers and moved backwards and forwards 3 to 4 times using light pressure. After inoculating the nutrient medium surface the small cloth is to remain lying directly above the condensed water level of the nutrient medium.
Germ carriers pre-treated in the same way, but kept in WSH for 120 minutes instead of in disinfectant solution are to be inoculated as a control. The inoculated tubes are incubated at 37°C for 3 weeks.

[14] = system: Candida albicans ATCC 10231; assay: Skin antiseptic b): quantitative suspension test according to DGHM; type: cell-based; details: 1.0% 8, formulation 1-propanol 15.0%, 2-propanol 30.0%
From the text: • 1-propanol 15.0% • 2-propanol 30.0% • aromatic alcohol 1.0% • dem. water to 100 [table]

[15] = standard formulation: Rewopal MPG 40 25.0 g, aromatic alcohol 10 mmol, dem. water to 100 g, pH 7.0
[16] = standard formulation: aromatic alcohol 5.0 %, Brij 58 5.0 %, 1,3-butanediol to 100

Compound: OCCCc1ccccc1 [Alcohol 1, 3-phenyl propanol, reference compound]
- MIC (minimum inhibiting concentration) P. funi. [1, 15]: 313 μmol/100 ml test solution
- MIC (minimum inhibiting concentration) P. funi. [1, 16]: 313 µmol/100 ml test solution
- Average value of RF (reduction factors) [2]: 0 log stages
- minimum inhibition concentration, T. mentagrophytes [3]: 6.25%
- minimum inhibition concentration, T. rubrum (Trichophyton rubrum [4]): 6.25%
- minimum inhibition concentration, M. gypseum (Microsporon gypseum [5]): 6.25%
- MIC (minimum inhibiting concentration) C. albicans [6, 15]: 625 μmol/100 ml test solution
- MIC (minimum inhibiting concentration) C. albicans [6, 16]: 625 µmol/100 ml test solution
- MIC (minimum inhibiting concentration) S. aureus [7, 15]: 1,250 μmol/100 ml test solution
- MIC (minimum inhibiting concentration) S. aureus [7, 16]: 1,250 µmol/100 ml test solution
- MIC (minimum inhibiting concentration) A. niger [8, 15]: 625 μmol/100 ml test solution
- MIC (minimum inhibiting concentration) A. niger [8, 16]: 625 µmol/100 ml test solution
- inhibition zone, T. mentagrophytes ([9]; use concentration 100%): 0 mm
- inhibition zone, T. rubrum (Trichophyton rubrum [10]; use concentration 100%): 0 mm
- inhibition zone, M. gypseum (Microsporon gypseum [11]; use concentration 100%): 0 mm
- MIC (minimum inhibiting concentration) P. vulgaris [12, 15]: 625 μmol/100 ml test solution
- MIC (minimum inhibiting concentration) P. vulgaris [12, 16]: 625 µmol/100 ml test solution
- growth of M. terrae after action time 15' [13]: ++++
- growth of M. terrae after action time 30' [13]: ++++
- growth of M. terrae after action time 60' [13]: +++
- growth of M. terrae after action time 120' [13]: +++

Compound: CCCCCC(=Cc1ccccc1)CO [Alcohol 8, α-amyl cinnamyl alcohol]
- MIC (minimum inhibiting concentration) P. funi. [1, 15]: 313 μmol/100 ml test solution
- Average value of RF (reduction factors) [2]: 1.9 log stages
- reduction factors (log stages) ([14]; column 25, contact time 1'): 0.6 log stages
- reduction factors (log stages) ([14]; column 25, contact time 2'): 1.1 log stages
- reduction factors (log stages) ([14]; column 25, contact time 5'): 1.7 log stages
- reduction factors (log stages) ([14]; column 25, contact time 30"): 0.5 log stages
- reduction factors (log stages) ([14]; column 50, contact time 1'): 3.5 log stages
- reduction factors (log stages) ([14]; column 50, contact time 2'): >4.9 log stages
- reduction factors (log stages) ([14]; column 50, contact time 5'): >5.1 log stages
- reduction factors (log stages) ([14]; column 50, contact time 30"): 2.7 log stages
- reduction factors (log stages) ([14]; column 75, contact time 1'): >4.6 log stages
- reduction factors (log stages) ([14]; column 75, contact time 2'): >4.9 log stages
- reduction factors (log stages) ([14]; column 75, contact time 5'): >5.1 log stages
- reduction factors (log stages) ([14]; column 75, contact time 30"): >4.6 log stages
- minimum inhibition concentration, T. mentagrophytes [3]: 1.56%
- minimum inhibition concentration, T. rubrum (Trichophyton rubrum [4]): 1.56%
- minimum inhibition concentration, M. gypseum (Microsporon gypseum [5]): 1.56%
- MIC (minimum inhibiting concentration) C. albicans [6, 15]: 313 μmol/100 ml test solution
- MIC (minimum inhibiting concentration) S. aureus [7, 15]: 39 μmol/100 ml test solution
- MIC (minimum inhibiting concentration) A. niger [8, 15]: 156 μmol/100 ml test solution
- inhibition zone, T. mentagrophytes ([9]; use concentration 50%): 14 mm
- inhibition zone, T. mentagrophytes ([9]; use concentration 100%): 22 mm
- inhibition zone, T. rubrum (Trichophyton rubrum [10]; use concentration 50%): 14 mm
- inhibition zone, T. rubrum (Trichophyton rubrum [10]; use concentration 100%): 23 mm
- inhibition zone, M. gypseum (Microsporon gypseum [11]; use concentration 50%): 10 mm
- inhibition zone, M. gypseum (Microsporon gypseum [11]; use concentration 100%): 19 mm
- MIC (minimum inhibiting concentration) P. vulgaris [12, 15]: 1,250 μmol/100 ml test solution
- growth of M. terrae after action time 15' [13]: +++
- growth of M. terrae after action time 30' [13]: ++
- growth of M. terrae after action time 60' [13]: +
- growth of M. terrae after action time 120' [13]: E
